As usually defined, the EC90 is the concentration at which the effect reaches the 90% level. Broadly, the inhibition is how much of the control response was suppressed.

The record followed here is patent US20230056135A1, “MONOMER AND MULTIMERIC ANTI-HBV AGENTS” (priority 2018, published 2023).

Where two headings read alike, the source gives them in different places.

Holding throughout (format): cell-based
The test system of one series is HepG2 cells. In words: Cellular toxicity assay in HepG2 cells. The method, then: (§1) The toxicity of the compounds was assessed in Vero, human PBM, CEM (human lymphoblastoid), MT-2, and HepG2 cells, as described previously (see Schinazi R. F., Sommadossi J.-P., Saalmann V., Cannon D. L., Xie M.-Y., Hart G. C., Smith G. A. & Hahn E. F. Antimicrob. Agents Chemother. 1990, 34, 1061-67). Cycloheximide was included as positive cytotoxic control, and untreated cells exposed to solvent were included as negative controls. The cytotoxicity IC50 was obtained from the concentration-response curve using the median effective method described previously (see Chou T.-C. & Talalay P. Adv. Enzyme Regul. 1984, 22, 27-55; Belen'kii M. S. & Schinazi R. F. Antiviral Res. 1994, 25, 1-11).

The next series deals with human PBM. Kind of series: Cellular toxicity assay in human PBM cells. The method, then:
as §1

The next series concerns wild type HBV. In words: Anti-HBV assay in AD-38 cell line (HBV in culture supernatant). The conditions noted are these: AD-38 cell line, Tet (-); for EC50: read-out: Anti-HBV activity EC50; for EC90: read-out: Anti-HBV activity EC90. The method, then: The anti-HBV activity of the compounds was determined by treating the AD-38 cell line carrying wild type HBV under the control of tetracycline (see Ladner S. K., Otto M. J., Barker C. S., Zaifert K., Wang G. H., Guo J. T., Seeger C. & King R. W. Antimicrob. Agents Chemother. 1997, 41, 1715-20). Removal of tetracycline from the medium [Tet (−)] results in the production of HBV. The levels of HBV in the culture supernatant fluids from cells treated with the compounds were compared with that of the untreated controls. Control cultures with tetracycline [Tet (+)] were also maintained to determine the basal levels of HBV expression. 3TC was included as positive control.
The median effective concentrations (EC50) ranges of several of the compounds described herein against HBV are shown in Table 3: […]

Series [1] deals with CEM (human lymphoblastoid). Kind of series: Cellular toxicity assay in CEM cells. The method, then: as §1
The next series deals with Vero. In words: Cellular toxicity assay in Vero cells. The method, then:
as §1

In series [2] the test system is HBV replication in HepAD38 cells. Kind of series: Drug-drug combination, inhibition of HBV replication in HepAD38 cells.
Series [3] in a line: Cytotoxicity (rDNA) in HepG2-NTCP infectious system. The conditions noted are these: human, HepG2-NTCP (Clone 7) cells infected with HBV, day 11, read-out: HBV DNA/rDNA CC50. How it is done:
(§2) Antiviral Activity in HepG2-NTCP Infectious System: HepG2-NTCP (Clone 7) cells were pretreated with antivirals for 30 min prior infection for 24 h with stock concentrated virus produced from HepAD38 at a dose of ˜300 virus genome equivalent (VGE) per cell in the presence of media containing 4% polyethylene glycol 8000 (PEG) and 2% DMSO. After 24 h, virus inoculum with or without antiviral agents were washed out from cells and media in the presence of 4% PEG and 2% DMSO, with or without antiviral agents were replenished every two days until day 11. Cells and supernatants were harvested and tested for intracellular HBV DNA, pregenomic (pg) RNA, surface RNA, and secreted HBeAg (ELISA).

Series [4] can be described thus: Cellular toxicity assay in HepG2 cells. As to conditions: human, HepG2 cells; read-out: Cytotoxicity; CC50 (μM) HepG2. The method, then:
as §1

The subject of a further series is Glutathione levels (GSH). Kind of series: Glutathione levels in Huh7 cells (GSH-Glo Glutathione Assay). As to conditions: for GSH levels relative to untreated control: 22 h treatment; for inhibition at 10 µM: Homo sapiens, Huh-7, read-out: GSH levels relative to untreated control (% inhibition at 10 μM), 22 h, 10 μM. The method, then: Glutathione levels (GSH) were measured in Huh7 cells after 22 h treatment with 10 μM CAMs (GSH-Glo™ Glutathione Assay—Promega). Treatment of Huh7 with 10 μM positive control, L-buthionine-sulfoximine, reduced cellular GSH levels by 58% (data not shown); Samples were tested in triplicates.

Another series relates to HBV. In words: Antiviral activity in HepG2-NTCP infectious system. The conditions noted are these: Hepatitis B virus, 264 h. The method, then: as §2
The nature of series [5]: Cellular toxicity assay in human PBM cells. As to conditions: human, human PBM cells; read-out: Cytotoxicity; CC50 (μM) PBM. The method, then:
as §1

[6] abbreviates: HepG2 cells, read-out: Cytotoxicity, CC50 (μM) HepG2.
Setting [7] is: human PBM cells, read-out: Cytotoxicity, CC50 (μM) PBM.
The mark [8] stands for this setting: CEM cells, read-out: Cytotoxicity, CC50 (μM) CEM.
The mark [9] stands for this setting: Vero cells, read-out: Cytotoxicity, CC50 (μM) VERO.
Where [10] appears, read: read-out: HBV DNA/rDNA EC50 (nM).
[11] abbreviates: read-out: HBV RNA EC50, nM pgRNA.
Where [12] appears, read: read-out: HBV RNA EC50, nM sRNA.

Consider “4,4′-(2,2′-(((Tetradecane-1,14-diylbis(1H-1,2,3-triazole-1,4-diyl))bis(methylene)) bis(azanediyl)) bis(2-oxoacetyl))bis(N-(3,4-difluorophenyl)-1,3,5-trimethyl-1H-pyrrole-2-carboxamide) [Compound 80]”, for which the CC50 in the series with HepG2 cells (setting [6]) and in the series with human PBM (setting [7]) was > 100 µM in each case. In the series with wild type HBV, the EC50 lay within 1 to 10 nM.

On to `Cc1c(C(=O)C(=O)NCc2cn(CCCCCCCCn3cc(CNC(=O)C(=O)c4c(C)c(C(=O)Nc5ccc(F)c(F)c5)n(C)c4C)nn3)nn2)c(C)n(C)c1C(=O)Nc1ccc(F)c(F)c1` [Compound 9, 4,4′-(2,2′-(((Octane-1,8-diylbis(1H-1,2,3-triazole-1,4-diyl))bis(methylene))bis(azanediyl))bis(2-oxoacetyl))bis(N-(3,4-difluorophenyl)-1,3,5-trimethyl-1H-pyrrole-2-carboxamide)], for which the CC50 in series [1] (setting [8]) is > 100 µM; in the series on HepG2 cells (setting [6]), > 100 µM; in the series with Vero (setting [9]) it was > 100 µM; in the series on human PBM (setting [7]), 26.4 µM. In addition, in the series on wild type HBV, the EC50 was in the range of 100 to 1000 nM. Further, in the series on wild type HBV, the EC90 is 1000 to 10000 nM.

For `CCOC(=O)C1=C(CNCc2cn(CCCCCCCCn3cc(CNC(=O)C(=O)c4c(C)c(C(=O)Nc5ccc(F)c(F)c5)n(C)c4C)nn3)nn2)NC(c2nccs2)=NC1c1ccc(F)cc1Br` (stereo not drawn) [Compound 20, Ethyl 4-(2-bromo-4-fluorophenyl)-6-((((1-(8-(4-((2-(5-((3,4-difluorophenyl)-carbamoyl)-1,2,4-trimethyl-1H-pyrrol-3-yl)-2-oxoacelamido)methyl)-1H-1,2,3-triazol-1-yl)octyl)-1H-1,2,3-triazol-4-yl)methyl)amino)methyl)-2-(thiazol-2-yl)-1,4-dihydropyrimidine-5-carboxylate], the CC50 in series [1] was > 100 µM; with HepG2 cells it was > 100 µM; in the series with Vero, > 100 µM; in the series on human PBM, 33 µM. In addition, the EC50 in the series on wild type HBV lay within 10 to 100 nM. In addition, the EC90 in the series on wild type HBV is 1000 to 10000 nM.

Turning to `O=C(NC(Br)=C(C(=O)N1CCCCC1)c1ccccc1OCCCCCCCCCCCCOc1ccccc1C(C(=O)N1CCCCC1)=C(Br)NC(=O)c1ccc([N+](=O)[O-])cc1)c1ccc([N+](=O)[O-])cc1` [Compound 28], the CC50 (in [1]; with HepG2 cells; with Vero; in the series with human PBM) was > 100 µM in each case. The EC50 in the series with wild type HBV is 1000 to 10000 nM.

`Cc1c(C(=O)C(=O)NCc2cn(CCCCCCCCCCCCn3cc(CNC(=O)C(=O)c4c(C)c(C(=O)Nc5ccc(F)c(F)c5)n(C)c4C)nn3)nn2)c(C)n(C)c1C(=O)Nc1ccc(F)c(F)c1` [Compound 53, 4,4′-(2,2′-(((Dodecane-1,12-diylbis(1H-1,2,3-triazole-1,4-diyl))bis(methylene))bis(azanediyl))bis(2-oxoacetyl))bis(N-(3,4-difluorophenyl)-1,3,5-trimethyl-1H-pyrrole-2-carboxamide)]: the EC50 in series [2] (HepAD38 cells, combinations at ratio 1:1, read-out: EC50) was 0.02 nM; in the series with wild type HBV, 0.1 to 1 nM. Further, the EC90 is 5.29 nM in series [2] (HepAD38 cells, combinations at ratio 1:1, read-out: EC90) and 10 to 100 nM with wild type HBV. Besides, the CC50 in series [1] (setting [8]) was 45 µM; with HepG2 cells (setting [6]) it was > 100 µM; in the series with Vero (setting [9]) it was > 100 µM; in the series on human PBM (setting [7]) it was 35 µM.

Turning to `Cc1c(C(=O)C(=O)NCc2cn(CCOCCOCCOCC(CO)COCCOCCOCCn3cc(CNC(=O)C(=O)c4c(C)c(C(=O)Nc5ccc(F)c(F)c5)n(C)c4C)nn3)nn2)c(C)n(C)c1C(=O)Nc1ccc(F)c(F)c1` [Compound 101, 4,4′-(2,2′-((((11-(Hydroxymethyl)-3,6,9,13,16,19-hexaoxahenicosane-1,21-diyl)bis(1H-1,2,3-triazole-1,4-diyl))bis(methylene))bis(azanediyl))bis(2-oxoacetyl))bis(N-(3,4-difluorophenyl)-1,3,5-trimethyl-1H-pyrrole-2-carboxamide)], the CC50 with HepG2 cells (setting [6]) and with human PBM (setting [7]) was > 100 µM throughout. The EC50 in the series on wild type HBV fell in the range of 10 to 100 nM.

With `C#CCNC(=O)C(=O)c1c(C)c(C(=O)Nc2ccc(F)c(F)c2)n(CC#C)c1C` [Compound 114, N-(3,4-Difluorophenyl)-3,5-dimethyl-4-(2-oxo-2-(prop-2-yn-1-ylamino)acetyl)-1-(prop-2-yn-1-yl)-1H-pyrrole-2-carboxamide], the CC50 at 11 days in [3] was > 1000 nM. Also, the CC50 in series [4] and in [5] was > 100 µM each time. The “GSH levels relative to untreated control” value in the series on Glutathione levels (GSH) is > 10 µM. In addition, the inhibition at 10 µM with Glutathione levels (GSH) turned out to be 27%. For the same molecule, the EC50 in the series with HBV (setting [10]) was 0.6 nM; with HBV (setting [11]) it was 79.6 nM; in the series with HBV (setting [12]) it was 67.8 nM; in the series with HBV (read-out: HBeAg EC50, nM), 488 nM; with wild type HBV (Hepatitis B virus), 0.1 to 1 nM.

For the molecule `C#CCn1c(C)c(C(=O)C(=O)NC(C#C)(CC)CC)c(C)c1C(=O)Nc1ccc(F)c(F)c1` [Compound 115, N-(3,4-Difluorophenyl)-4-(2-((3-ethylpent-1-yn-3-yl)amino)-2-oxoacetyl)-3,5-dimethyl-1-(prop-2-yn-1-yl)-1H-pyrrole-2-carboxamide], the CC50 in series [4] was 35 µM; in series [5], 45 µM. For the same molecule, in the series with Glutathione levels (GSH), the “GSH levels relative to untreated control” value is > 10 µM. In addition, the inhibition at 10 µM in the series with Glutathione levels (GSH) is < 1%. The EC50 in the series on wild type HBV (Hepatitis B virus) lay within 0.1 to 1 nM.

For the molecule `C=C1[C@H](CO)[C@@H](O)C[C@@H]1n1cnc2c(=O)[nH]c(N)nc21` [ETV, Entecavir, reference compound], the EC50 in [2] (Hepatitis B virus, HePAD38) was 0.04 nM; with HBV (setting [10]), < 1 nM; with HBV (setting [11]), > 1000 nM; with HBV (setting [12]), > 1000 nM; with HBV (read-out: HBeAg EC50, nM), > 1000 nM. Further, the EC90 in series [2] (Hepatitis B virus, HePAD38) worked out at 12.9 nM. The CC50 at 11 days in series [3] was > 1000 nM.

Consider `CCCCS(=N)(=O)CCC(N)C(=O)O` [L-buthionine-sulfoximine, reference compound], for which, in the series with Glutathione levels (GSH) (10 μM positive control), the “reduction of cellular GSH levels” value stood at 58%.
